Data taken from patent publication US20240415819A1, “MACROCYCLIC COMPOUNDS AS PROTEASOME SUBUNIT BETA TYPE-5 INHIBITORS” (Lead Discovery Center GmbH, priority 2021, published 2024).

How the values were obtained:
[1] = target: T1, β5 subunit of the human immunoproteasome (IPS) (Homo sapiens, UniProt P28062); assay: β5 inhibition assay, human immunoproteasome (Suc-LLVY-AMC); assay type: biochemical; conditions: IC50 class, Suc-LLVY-AMC substrate
T1 construct: purchased Boston Biochem E-370
How it was run: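 Human immunoproteasome (1 nM final) was preincubated 10 min at RT with compound in 100 mM HEPES pH 7.5, 50 mM NaCl, 0.02% SDS, 1 mM DTT. Suc-LLVY-AMC (22.6 μM final) was then added for 4 h at RT in the dark. After stopping with 1 μM bortezomib, AMC fluorescence was read (ex 355/em 460 nm).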

[2] = tested on: hPMBC; assay: Chymotrypsin-like ProteasomeGlo assay in hPBMC; assay type: cell-based; conditions: Homo sapiens; read-out: Pglo hPBMC
How it was run: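 B cells isolated from human PBMC (buffy coats, density gradient, magnetic isolation). Cells treated with compound for 105 min at 37 °C, with staurosporine and DMSO included. Chymotrypsin-like proteasome activity read by luminescence with Suc-LLVY-Glo substrate to derive IC50.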

SMILES | IC50 [1] | IC50 [2]
Cc1ccc2cc1CNC(=O)C(c1cnn(C)c1)NC(=O)[C@@H](NC(=O)C1CCCc3ccccc31)CC(=O)N1CCCC(CCO2)C1 (stereo partly drawn) [Compound 360, N-((12S)-5^4-methyl-9-(1-methyl-1H-pyrazol-4-yl)-8,11,14-trioxo-4-oxa-7,10-diaza-1(3,1)-piperidina-5(1,3)-benzenacyclotetradecaphane-12-yl)-1,2,3,4-tetrahydronaphthalene-1-carboxamide] | < 100 nM | < 100 nM
CC(=O)N[C@H]1CC(=O)N2CCCC(CCOc3ccc(C)c(c3)CNC(=O)C(CCc3nccs3)NC1=O)C2 (stereo partly drawn) [Compound 563, N-((12S)-5^4-methyl-8,11,14-trioxo-9-(2-(thiazol-2-yl)ethyl)-4-oxa-7,10-diaza-1(3,1)-piperidina-5(1,3)-benzenacyclotetradecaphane-12-yl)acetamide] | < 100 nM | < 100 nM
Cc1ccc2cc1CNC(=O)C(CCc1cnccn1)NC(=O)[C@@H](NC(=O)C1(c3ccc(N)cc3)CC1)CC(=O)N1CCCC(CCO2)C1 (stereo partly drawn) [Compound 371, 1-(4-aminophenyl)-N-((9S,12S)-5^4-methyl-8,11,14-trioxo-9-(2-(pyrazin-2-yl)ethyl)-4-oxa-7,10-diaza-1(3,1)-piperidina-5(1,3)-benzenacyclotetradecaphane-12-yl)cyclopropane-1-carboxamide] | < 100 nM | < 100 nM
Cc1ccc2cc1CNC(=O)[C@H](CCc1ccccc1)NC(=O)[C@@H](NC(=O)OCc1ccccc1)CCCC(=O)N1CCC(CCO2)C1 (stereo partly drawn) [Compound 352, benzyl ((9S, 12S)-5^4-methyl-8,11,16-trioxo-9-phenethyl-4-oxa-7,10-diaza-1(3,1)-pyrrolidina-5(1,3)-benzenacyclohexadecaphane-12-yl)carbamate] | < 100 nM | 100 to 500 nM
CC(=O)N[C@H]1CC(=O)N2CCCC(CCOc3ccc(C)c(c3)CNC(=O)C(c3cnn(CCC(=O)O)c3)NC1=O)C2 (stereo partly drawn) [Compound 567, 3-(4-((12S)-12-acetamido-5^4-methyl-8,11,14-trioxo-4-oxa-7,10-diaza-1(3,1)-piperidina-5(1,3)-benzenacyclotetradecaphane-9-yl)-1H-pyrazol-1-yl)propanoic acid] | < 100 nM | < 100 nM
CCOC(=O)N[C@H]1CC(=O)N2CCCC(CCOc3ccc(C)c(c3)CNC(=O)C(c3cnn(C)c3)NC1=O)C2 (stereo partly drawn) [Compound 363, Ethyl ((12S)-5^4-methyl-9-(1-methyl-1H-pyrazol-4-yl)-8,11,14-trioxo-4-oxa-7,10-diaza-1(3,1)-piperidina-5(1,3)-benzenacyclotetradecaphane-12-yl)carbamate] | < 100 nM | < 100 nM
Cc1ccc2cc1CNC(=O)[C@H](CCc1ccccc1)NC(=O)[C@@H](NC(=O)CC1=NN(c3ccccc3)C(=O)C1)CC(=O)N1CCCC(CCO2)C1 (stereo partly drawn) [Compound 334, N-((9S,12S)-5^4-methyl-8,11,14-trioxo-9-phenethyl-4-oxa-7,10-diaza-1(3,1)-piperidina-5(1,3)-benzenacyclotetradecaphane-12-yl)-2-(5-oxo-1-phenyl-4,5-dihydro-1H-pyrazol-3-yl)acetamide] | < 100 nM | 100 to 500 nM
Cc1ccc2cc1CNC(=O)C(c1cnn(C)c1)NC(=O)[C@@H](NC(=O)CN1CCCC1)CC(=O)N1CCCC(CCO2)C1 (stereo partly drawn) [Compound 358, N-((12S)-5^4-methyl-9-(1-methyl-1H-pyrazol-4-yl)-8,11,14-trioxo-4-oxa-7,10-diaza-1(3,1)-piperidina-5(1,3)-benzenacyclotetradecaphane-12-yl)-2-(pyrrolidin-1-yl)acetamide] | < 100 nM | < 100 nM
Cc1ccc2cc1CNC(=O)C(CCc1cnc3cccnc3c1)NC(=O)[C@@H](NC(=O)OCc1ccccc1)CC(=O)N1CCCC(CCO2)C1 (stereo partly drawn) [Compound 511, benzyl ((12S)-9-(2-(1,5-naphthyridin-3-yl)ethyl)-5^4-methyl-8,11,14-trioxo-4-oxa-7,10-diaza-1(3,1)-piperidina-5(1,3)-benzenacyclotetradecaphane-12-yl)carbamate] | < 100 nM | < 100 nM
Cc1ccc2cc1CNC(=O)[C@H](CCc1ccccc1)NC(=O)[C@@H](NC(=O)Cc1nnc(N)[nH]1)CC(=O)N1CCCC(CCO2)C1 (stereo partly drawn) [Compound 340, 2-(5-amino-1H-1,2,4-triazol-3-yl)-N-((9S,12S)-5^4-methyl-8,11,14-trioxo-9-phenethyl-4-oxa-7,10-diaza-1(3,1)-piperidina-5(1,3)-benzenacyclotetradecaphane-12-yl)acetamide] | < 100 nM | < 100 nM
CC(=O)N[C@H]1CCCC(=O)N(C)CCCCOc2ccc(C)c(c2)CNC(=O)[C@H](CCc2ccccc2)NC1=O [Compound 295, N-(1^4,7-dimethyl-8,13,16-trioxo-15-phenethyl-2-oxa-7,14,17-triaza-1(1,3)-benzenacyclooctadecaphane-12-yl)acetamide] | < 100 nM | 100 to 500 nM
Cc1ccc2cc1CNC(=O)[C@H](CCc1ccccc1)NC(=O)[C@@H](NC(=O)OCc1ccccc1)CCC(=O)N1CCC(CO2)C1 (stereo partly drawn) [Compound 349, benzyl ((8S,11S)-4^4-methyl-7,10,14-trioxo-8-phenethyl-3-oxa-6,9-diaza-1(3,1)-pyrrolidina-4(1,3)-benzenacyclotetradecaphane-11-yl)carbamate] | < 100 nM | < 100 nM
COC(=O)N(CC1NC(=O)[C@@H](NC(=O)OCc2ccccc2)CC(=O)N2CCCC(CCOc3ccc(C)c(c3)CNC1=O)C2)c1ccccc1 (stereo partly drawn) [Compound 513, methyl (((12R)-12-(((benzyloxy)carbonyl)amino)-5^4-methyl-8,11,14-trioxo-4-oxa-7,10-diaza-1(3,1)-piperidina-5(1,3)-benzenacyclotetradecaphane-9-yl)methyl)(phenyl)carbamate] | < 100 nM | < 100 nM
CC(=O)N[C@H]1CC(=O)N2CCCC(CCOc3ccc(C)c(c3)CNC(=O)C(c3ccc4ncccc4c3)NC1=O)C2 (stereo partly drawn) [Compound 554, N-((12S)-5^4-methyl-8,11,14-trioxo-9-(quinolin-6-yl)-4-oxa-7,10-diaza-1(3,1)-piperidina-5(1,3)-benzenacyclotetradecaphane-12-yl)acetamide] | < 100 nM | 100 to 500 nM
CCOC(C(=O)N[C@H]1CC(=O)N2CCCC(CCOc3ccc(C)c(c3)CNC(=O)[C@H](CCc3ccccc3)NC1=O)C2)c1ccc(N)cc1 (stereo partly drawn) [Compound 345, 2-(4-aminophenyl)-2-ethoxy-N-((9S,12S)-5^4-methyl-8,11,14-trioxo-9-phenethyl-4-oxa-7,10-diaza-1(3,1)-piperidina-5(1,3)-benzenacyclotetradecaphane-12-yl)acetamide] | < 100 nM | < 100 nM
CC(=O)N[C@H]1CC(=O)N2CCCC(CCOc3ccc(C)c(c3)CNC(=O)C(c3cn[nH]c3)NC1=O)C2 (stereo partly drawn) [Compound 562, N-((12S)-5^4-methyl-8,11,14-trioxo-9-(1H-pyrazol-4-yl)-4-oxa-7,10-diaza-1(3,1)-piperidina-5(1,3)-benzenacyclotetradecaphane-12-yl)acetamide] | < 100 nM | < 100 nM
Cc1ccc2cc1CNC(=O)[C@H](CCc1ccccc1)NC(=O)[C@@H](NC(=O)Cc1cnc(N)s1)CC(=O)N1CCCC(CCO2)C1 (stereo partly drawn) [Compound 311, 2-(2-aminothiazol-5-yl)-N-((9S,12S)-5^4-methyl-8,11,14-trioxo-9-phenethyl-4-oxa-7,10-diaza-1(3,1)-piperidina-5(1,3)-benzenacyclotetradecaphane-12-yl)acetamide] | < 100 nM | < 100 nM
CC(=O)N[C@H]1CC(=O)N2CCCC(CCOc3ccc(C)c(c3)CNC(=O)C(CCC3CCN(C(C)=O)CC3)NC1=O)C2 (stereo partly drawn) [Compound 338, N-((12S)-9-(2-(1-acetylpiperidin-4-yl)ethyl)-5^4-methyl-8,11,14-trioxo-4-oxa-7,10-diaza-1(3,1)-piperidina-5(1,3)-benzenacyclotetradecaphane-12-yl)acetamide] | < 100 nM | < 100 nM
Cc1ccc2cc1CNC(=O)[C@@H](CCc1ccccc1)NC(=O)[C@H](NC(=O)C(C)(C)CS)CC(=O)N1CCCC(CCO2)C1 (stereo partly drawn) [Compound 348, 3-mercapto-2,2-dimethyl-N-((9S,12S)-5^4-methyl-8,11,14-trioxo-9-phenethyl-4-oxa-7,10-diaza-1(3,1)-piperidina-5(1,3)-benzenacyclotetradecaphane-12-yl)propanamide] | < 100 nM | < 100 nM
CC(=O)N[C@H]1CC(=O)N2CCCC(CCOc3ccc(C)c(c3)CNC(=O)C(c3cnn(CCOCCOCCOCCN)c3)NC1=O)C2 (stereo partly drawn) [Compound 566, N-((12S)-9-(1-(2-(2-(2-(2-aminoethoxy)ethoxy)ethoxy)ethyl)-1H-pyrazol-4-yl)-5^4-methyl-8,11,14-trioxo-4-oxa-7,10-diaza-1(3,1)-piperidina-5(1,3)-benzenacyclotetradecaphane-12-yl)acetamide] | < 100 nM | 100 to 500 nM
Cc1ccc2cc1CNC(=O)[C@H](CCc1ccccc1)NC(=O)[C@@H](NC(=O)C(C)c1ccc(N)cc1)CC(=O)N1CCCC(CCO2)C1 (stereo partly drawn) [Compound 309, 2-(4-aminophenyl)-N-((9S,12S)-5^4-methyl-8,11,14-trioxo-9-phenethyl-4-oxa-7,10-diaza-1(3,1)-piperidina-5(1,3)-benzenacyclotetradecaphane-12-yl)propanamide] | < 100 nM | < 100 nM
Cc1ccc2cc1CNC(=O)[C@H](CCc1ccccc1)NC(=O)[C@@H](NC(=O)OCc1ccccc1)CC(=O)N1CCCC(CCO2)C1 (stereo partly drawn) [Compound 7, benzyl ((9S,12S)-5^4-methyl-8,11,14-trioxo-9-phenethyl-4-oxa-7,10-diaza-1(3,1)-piperidina-5(1,3)-benzenacyclotetradecaphane-12-yl)carbamate] | < 100 nM | < 100 nM
